Source: publication PMC2882332, “Species Used for Drug Testing Reveal Different Inhibition Susceptibility for 17beta-Hydroxysteroid Dehydrogenase Type 1” (PLoS ONE, 2010)
Entries after “also recorded” stand apart in the source; their conditions may differ.

Assays:
[1] = system: 17β-HSD 1 orthologs of five species; experiment: In vitro enzymatic activity, 17β-HSD 1 orthologs of five species taken together; format: biochemical, human, marmoset, mouse, pig, rat; conditions: average over the 17β-HSD 1 orthologs of the species; 2 µM compound
mouse 17β-HSD 1 = target: T1, mouse 17β-HSD 1 (Mus musculus, UniProt P51656); experiment: In vitro enzymatic activity, recombinant mouse 17β-HSD 1; format: biochemical; conditions: 2 µM compound, 15 nM 3H-estrone, read-out: Observed % inhibition
T1 construct: Full length cDNAs of several 17β-HSDs type 1 originating from different species were cloned; made in house; host or cells: E.coli BL21 DE3 Codon Plus RP
T1 sequence (P51656 1-344): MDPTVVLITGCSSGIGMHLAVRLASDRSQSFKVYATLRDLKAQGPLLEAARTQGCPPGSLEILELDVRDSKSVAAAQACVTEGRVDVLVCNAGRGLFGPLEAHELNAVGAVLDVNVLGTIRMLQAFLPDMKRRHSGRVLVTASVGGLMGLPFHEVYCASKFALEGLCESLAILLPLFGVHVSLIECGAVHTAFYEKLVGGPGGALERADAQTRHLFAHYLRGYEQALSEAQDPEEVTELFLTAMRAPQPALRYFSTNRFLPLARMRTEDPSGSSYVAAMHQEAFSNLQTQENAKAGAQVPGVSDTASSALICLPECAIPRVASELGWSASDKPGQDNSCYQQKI
Description: (§1) Full length cDNAs of several 17β-HSDs type 1 originating from different species were cloned either into the pQE30 vector (human 17β-HSD 1, coding for acc. no. NP_000404) for expression as His-Tag protein or into a modified pGex-2T vector [63] (mouse 17β-HSD 1, acc. no. NP_034605; rat 17β-HSD 1, acc. no. NP_036983; marmoset 17β-HSD 1, acc. no. AAG01115; porcine 17β-HSD 1, acc. no. NP_001121944) for expression as GST-fusion proteins. The marmoset 17β-HSD 1 enzyme sequence was updated by the missing N-terminal part (AF272013) and the new porcine sequence was submitted to GenBank (NP_001121944). Human 17β-HSDs 2, 4, 5 (AKR1C3, the latter kindly provided by Dr. T. Penning) and 7 were all cloned into the modified pGEX-2T vector. For 17β-HSD 4 only the SDR-domain converting the steroids was subcloned. Plasmids were transformed into E.coli BL21 DE3 Codon Plus RP (Stratagene) and enzyme expression was induced by 0.5 mM IPTG. After 4h incubation at 37°C with continuous shaking bacteria were pelleted by centrifugation at 10.000×g. Pellets were stored until use at −20°C.
(§2) The bacteria containing recombinant enzymes were resuspended in PBS and enzymatic assays were performed in 100 mM sodium phosphate buffer at pH 6.6 for the reductive reaction and at pH 7.7 for the oxidative reaction. […] All substrates were purchased from NEN/Perkin Elmer. The cofactors NADPH (Sigma; for reductive reactions) and NAD^+ (Serva, for oxidative reactions) were used at final concentrations of 0.5 mg/ml. […] The incubation at 37°C was stopped with 0.21 M ascorbic acid in methanol∶acetic acid 99∶1 (v∶v) after the time needed to convert approximately 30% of the substrate in a control assay with 1% DMSO, without inhibitor candidates. […] The solvent used was acetonitrile∶water (43∶57, v∶v) at a flow rate of 1 ml/min. Radioactivity was detected by online-scintillation counting (Berthold LB506D) after mixing with ReadyFlowIII (Beckman). Conversion was calculated from integration of substrate and product peaks. […] All assays were run in duplicates of two independent experiments and mean values are reported. The IC50 values were determined by the One Ligand Binding model of SigmaPlot kinetics module.

human 17β-HSD 1 = target: T2, human 17β-HSD 1 (Homo sapiens, UniProt P14061); experiment: In vitro enzymatic activity, recombinant human 17β-HSD 1 (estrone reduction); format: biochemical; conditions: for specificity for human 17β-HSD 1 over human 17β-HSD 2, 4, 5 and 7 (in words) / inhibition of the human 17β-HSD 1 reductive activity (in words): 2 µM; for specificity for human 17β-HSD 1 over human 17β-HSD 2, 4, 5 and 7 (in words): Figure 2, Table 3; for inhibition at 2 µM: human 17β-HSD 1, 2 µM compound, 15 nM 3H-estrone, NADPH, pH 6.6, read-out: Observed % inhibition; for inhibition of the human 17β-HSD 1 reductive activity (in words): Figure 2; for IC50: Human 17β-HSD 1, 0.005 µM to 5 µM inhibitor
T2 construct: Full length cDNAs of several 17β-HSDs type 1 originating from different species were cloned; made in house; host or cells: E.coli BL21 DE3 Codon Plus RP
T2 sequence (P14061 1-328): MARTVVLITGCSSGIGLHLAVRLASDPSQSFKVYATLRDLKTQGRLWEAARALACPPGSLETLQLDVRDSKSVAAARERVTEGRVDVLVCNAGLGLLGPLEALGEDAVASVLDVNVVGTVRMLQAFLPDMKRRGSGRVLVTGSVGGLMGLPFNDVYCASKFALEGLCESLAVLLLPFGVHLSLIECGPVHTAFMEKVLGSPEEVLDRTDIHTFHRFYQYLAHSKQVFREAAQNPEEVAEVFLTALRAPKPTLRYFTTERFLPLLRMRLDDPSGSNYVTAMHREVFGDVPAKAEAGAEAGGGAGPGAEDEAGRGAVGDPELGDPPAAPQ
Description: as §1, §2

rat 17β-HSD 1 = target: T3, rat 17β-HSD 1 (Rattus norvegicus, UniProt P51657); experiment: In vitro enzymatic activity, recombinant rat 17β-HSD 1; format: biochemical; conditions: 2 µM compound, 15 nM 3H-estrone, read-out: Observed % inhibition
T3 construct: Full length cDNAs of several 17β-HSDs type 1 originating from different species were cloned; made in house; host or cells: E.coli BL21 DE3 Codon Plus RP
T3 sequence (P51657 1-344): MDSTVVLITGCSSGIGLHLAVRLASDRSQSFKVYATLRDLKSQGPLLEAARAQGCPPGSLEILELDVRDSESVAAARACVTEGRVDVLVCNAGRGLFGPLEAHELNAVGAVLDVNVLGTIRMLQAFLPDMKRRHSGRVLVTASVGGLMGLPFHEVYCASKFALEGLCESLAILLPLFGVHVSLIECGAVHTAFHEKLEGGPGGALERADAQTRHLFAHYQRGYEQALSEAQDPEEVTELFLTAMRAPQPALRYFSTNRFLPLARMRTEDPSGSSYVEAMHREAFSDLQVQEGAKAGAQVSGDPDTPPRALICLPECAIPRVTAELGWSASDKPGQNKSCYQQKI
Description: as §1, §2

marmoset 17β-HSD 1 = target: T4, marmoset 17β-HSD 1 (Callithrix jacchus, UniProt Q9GME2); experiment: In vitro enzymatic activity, recombinant marmoset 17β-HSD 1; format: biochemical; conditions: for inhibition at 2 µM: marmoset 17β-HSD 1, 2 µM compound, 15 nM 3H-estrone, read-out: Observed % inhibition
T4 sequence (Q9GME2 1-314): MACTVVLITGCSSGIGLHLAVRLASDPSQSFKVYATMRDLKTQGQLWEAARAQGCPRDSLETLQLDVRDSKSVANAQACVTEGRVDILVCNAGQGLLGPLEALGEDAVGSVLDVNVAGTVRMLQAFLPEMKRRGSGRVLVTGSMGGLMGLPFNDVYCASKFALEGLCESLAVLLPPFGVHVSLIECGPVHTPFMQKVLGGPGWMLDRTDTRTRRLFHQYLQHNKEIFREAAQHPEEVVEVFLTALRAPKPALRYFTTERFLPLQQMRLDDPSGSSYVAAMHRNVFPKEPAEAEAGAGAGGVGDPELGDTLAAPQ
Description: as §1, §2

SMILES: C[C@]12CC[C@@H]3c4ccc(O)cc4CC[C@H]3[C@@H]1[C@@H](CNC(=O)c1ccc(F)cc1)CC2=O [Compound 1]
- Observed % inhibition, average [1]: 42.1%
- inhibition at 2 µM (mouse 17β-HSD 1): 27%
- specificity for human 17β-HSD 1 over human 17β-HSD 2, 4, 5 and 7 (in words) (human 17β-HSD 1): most specific inhibitors
- inhibition at 2 µM (human 17β-HSD 1): 63.6%
- inhibition at 2 µM (rat 17β-HSD 1): 47.1%
- inhibition at 2 µM (marmoset 17β-HSD 1): 30.6%

SMILES: C[C@]12CC[C@@H]3c4ccc(O)cc4CC[C@H]3[C@@H]1[C@@H](CCCC(=O)N1CCOCC1)CC2=O [Compound 2]
- Observed % inhibition, average [1]: 52.2%
- inhibition at 2 µM (mouse 17β-HSD 1): -1.5%
- inhibition of the human 17β-HSD 1 reductive activity (in words) (human 17β-HSD 1): high inhibition
- specificity for human 17β-HSD 1 over human 17β-HSD 2, 4, 5 and 7 (in words) (human 17β-HSD 1): very low inhibition of the other human 17β-HSDs; also recorded: most specific inhibitors
- IC50 (human 17β-HSD 1): 87.4 nM
- inhibition at 2 µM (human 17β-HSD 1): 94.7%
- inhibition at 2 µM (rat 17β-HSD 1): 40.3%
- inhibition at 2 µM (marmoset 17β-HSD 1): 60.3%

SMILES: Cc1cnc(NC(=O)CC[C@@H]2CC(=O)[C@@]3(C)CC[C@@H]4c5ccc(O)cc5CC[C@H]4[C@H]23)s1 [Compound 3]
- Observed % inhibition, average [1]: 66.7%
- inhibition at 2 µM (mouse 17β-HSD 1): 27%
- inhibition of the human 17β-HSD 1 reductive activity (in words) (human 17β-HSD 1): high inhibition
- specificity for human 17β-HSD 1 over human 17β-HSD 2, 4, 5 and 7 (in words) (human 17β-HSD 1): very low inhibition of the other human 17β-HSDs; also recorded: most specific inhibitors
- IC50 (human 17β-HSD 1): 1.3 nM
- inhibition at 2 µM (human 17β-HSD 1): 97.9%
- inhibition at 2 µM (rat 17β-HSD 1): 5.3%
- IC50 (marmoset 17β-HSD 1): 95.3 nM
- inhibition at 2 µM (marmoset 17β-HSD 1): 98.5%

SMILES: COc1ccc(-c2cn(CCC[C@H]3CC(=O)[C@@]4(C)CC[C@@H]5c6ccc(O)cc6CC[C@H]5[C@H]34)nn2)cc1 [Compound 4]
- Observed % inhibition, average [1]: 57.0%
- inhibition at 2 µM (mouse 17β-HSD 1): 18.5%
- inhibition at 2 µM (human 17β-HSD 1): 95.8%
- inhibition at 2 µM (rat 17β-HSD 1): 19.4%
- inhibition at 2 µM (marmoset 17β-HSD 1): 85.2%

SMILES: C[C@]12CC[C@@H]3c4ccc(O)cc4CC[C@H]3[C@@H]1C[C@H](CC(=O)NCc1cccnc1)C2=O [Compound 5, reference compound]
- Observed % inhibition, average [1]: 48.4%
- inhibition at 2 µM (mouse 17β-HSD 1): 3.2%
- inhibition at 2 µM (human 17β-HSD 1): 100%
- inhibition at 2 µM (rat 17β-HSD 1): -2.4%
- inhibition at 2 µM (marmoset 17β-HSD 1): 45.6%
